Series [1] addresses T1, human serum albumin (hSA) (Homo sapiens, UniProt P02768).
T1 construct: purchased Albumin Bioscience (Huntsville, AL, USA)
Description: Competitive ITC with hSA saturated with ibuprofen or warfarin. The class given is binding. Conditions: for titration profile to hSA saturated with War: 200 μM War; for titration profile to hSA saturated with War / titration profile to Ibu-saturated hSA: PFAS 4 mM titrant; for titration profile to Ibu-saturated hSA: 250 μM Ibu; for preferably occupied hSA binding sites: concluded from stoichiometry and competition with Ibu. As for the experimental part:
(§1) ITC experiments were performed using a Microcal PEAQ-ITC instrument (Malvern Panalytical, Malvern, UK). Both dhSA (110 μM) and ligands (HPFO-DA, C6O4, PFHxA, Ibu, and War, 4 mM solutions) were dissolved in 50 mM NaPi, 100 mM NaCl, pH 7.4. Only in the case of War, 2.5% v/v DMSO was added to the buffer to improve its solubility. All working solutions were properly degassed. Titrations of dhSA with ligands were carried out at different temperatures (298 and 310 K). In each experiment, an initial 0.4 μL injection (excluded from subsequent data analysis) was followed by 25 independent injections of 1.5 μL with a stirring rate of 750 rpm to ensure rapid mixing. A 120 s interval between injections was applied to guarantee the equilibrium at each titration point. Blank experiments (ligands against buffer) were carried out for each ligand and subtracted to corresponding titrations in order to screen dilution heat contributions. Competition experiments were conducted by adding saturating concentrations of albumin-binding drugs (either 250 μM Ibu or 200 μM War) to dhSA in the measure cell and titrating each PFAS (4 mM) with the aforementioned instrumental parameters. Data were analyzed using the MicroCal PEAQ-ITC Evaluation software (Malvern Panalytical, Malvern, UK). Integrated heat signals were fitted to “one set of sites” (C6O4, PFHxA), “two sets of sites” (PFOA), or “sequential” (HPFO-DA) binding models. Values for the binding affinity constant (KA = 1/KD) and enthalpy change (ΔH), together with the stoichiometry of each PFAS-dhSA reaction, were obtained from curve fitting. Free energy and the entropy change (ΔS) were calculated from the Gibbs free energy (ΔG) relationships: ΔG = ΔH – TΔS = −RT ln(KA).
These include ibuprofen (Ibu) and warfarin (War), two well-characterized molecules known to share the same fatty acid-binding sites (FA4 and FA6 for Ibu, FA7 for War) with long-chain PFASs (Figure 2a).[45] Again, the short-chain perfluoroalkyl compound PFHxA was included as the control. […] The results are consistent with those previously reported that identified the ibuprofen-binding pocket as a preferable cavity to lodge polyfluoroalkyl compounds.[45]

Series [2] concerns the target T1, human serum albumin (hSA). Description: Isothermal titration calorimetry (ITC) of PFAS binding to defatted hSA. As for the experimental part:
as §1

The target in series [3] is T1, human serum albumin (hSA). The experiment in a line: Crystal structure of hSA in complex with HPFO-DA and Myr (PDB 7Z57). Conditions: ternary complex hSA-HPFO-DA-Myr, 1:20:5 molar ratio. The class given is binding. As for the experimental part: Crystallization trials of dhSA in complex with HPFO-DA, C6O4 and sodium myristate (Myr) were carried out at 285 K in an MRC maxi 48-well crystallization plate (Hampton Research, Aliso Viejo, CA, USA) using the sitting-drop vapor-diffusion method and the Morpheus MD1–46 protein crystallization screen kit (Molecular Dimensions Ltd., Catcliffe, UK). Droplets of 1.6 μL volume (0.8 μL of protein complex and 0.8 μL of reservoir solution) were set up using an Oryx 8 crystallization robot (Douglas Instruments Ltd., Catcliffe, UK) and equilibrated against 120 μL reservoir solution. In all the cases, best crystals were obtained by streak- or micro-seeding and left for 5–7 days. Crystals of dhSA (1 mM) incubated with a 20-fold molar excess of HPFO-DA (20 mM) and a fivefold molar excess of Myr (5 mM) were obtained using the following precipitant agents: 50 mM bicine, 50 mM Trizma base, 30 mM sodium fluoride, 30 mM sodium bromide, 30 mM sodium iodide, 12.5% v/v MPD, 12.5% w/v PEG 1000, and 12.5% w/v PEG 3350 pH 8.5. […]
The structure was solved by molecular replacement with software PHASER[49] using as a template the model 7AAI.[45] […] Intramolecular and intermolecular hydrogen bond interactions were analyzed by PROFUNC,[53] […]

The conditions of series [4]: environmentally exposed human populations; cited from earlier work.
Where [5] appears, read: 310 K, sequential binding, first binding event.
The mark [6] stands for this setting: 310 K, sequential binding, second binding event.
Setting [7] is: 298 K, two sets of sites, high-affinity sites.
The mark [8] stands for this setting: 298 K, two sets of sites, low-affinity sites.
[9] abbreviates: 310 K, two sets of sites, high-affinity sites.
The mark [10] stands for this setting: 310 K, two sets of sites, low-affinity sites.

Structures are written as SMILES. Where “and” joins values, the source holds several entries; their conditions need not be identical. Equal entries are not always repeated. Where two headings read alike, the source gives them in different places.

T1 sequence (P02768 25-609): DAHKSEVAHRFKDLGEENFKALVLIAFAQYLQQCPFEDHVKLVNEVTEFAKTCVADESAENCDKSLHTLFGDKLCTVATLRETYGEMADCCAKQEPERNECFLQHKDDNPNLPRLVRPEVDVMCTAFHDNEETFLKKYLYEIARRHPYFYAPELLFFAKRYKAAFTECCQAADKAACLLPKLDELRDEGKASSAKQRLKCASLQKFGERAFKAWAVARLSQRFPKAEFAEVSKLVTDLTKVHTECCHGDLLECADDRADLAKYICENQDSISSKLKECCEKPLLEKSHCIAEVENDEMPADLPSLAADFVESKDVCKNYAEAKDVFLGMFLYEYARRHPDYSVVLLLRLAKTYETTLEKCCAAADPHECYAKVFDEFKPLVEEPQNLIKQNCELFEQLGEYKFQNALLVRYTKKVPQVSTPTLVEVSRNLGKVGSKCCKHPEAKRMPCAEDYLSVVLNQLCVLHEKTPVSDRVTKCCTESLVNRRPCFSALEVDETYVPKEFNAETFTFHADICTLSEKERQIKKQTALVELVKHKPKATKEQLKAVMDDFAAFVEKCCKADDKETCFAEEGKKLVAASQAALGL

For `O=C(O)C(F)(F)OC1(F)OC(F)(F)OC1(F)OC(F)(F)F` (stereo not drawn) [C6O4, perfluoro ([5-methoxy-1,3-dioxolan-4-yl]oxy) acetic acid], in series [1], the “titration profile to hSA saturated with War” value (“titration profile … with War” for short) is listed as “comparable to that of hSA in the absence of competitive drug”, the “titration profile to Ibu-saturated hSA” value is reported as “nearly saturated flat curve” and the “preferably occupied hSA binding sites” value is “FA4 and/or FA6 sites”. In addition, in series [2] (298 K, one set of sites), the “n (stoichiometry)” value came to 1.6 ± 0.2, the ΔG entry is “–32.10 kJ/mol”, the ΔH entry is on record as “–21.4 ± 1.4 kJ/mol” and the “–TΔS” value is on record as “–10.7 kJ/mol”. In series [2] (310 K, one set of sites), the “n (stoichiometry)” value was 1.5 ± 0.3, the ΔG result was “–31.70 kJ/mol”, the ΔH result is on record as “–25.8 ± 4.2 kJ/mol” and the “–TΔS” value is 0.406 kcal/mol. Also, in series [2] (KD, 298 K, one set of sites), the Kd worked out at 2.4 ± 0.1 µM. Moreover, the Kd in series [2] (KD, 310 K, one set of sites) came to 5.4 ± 2.1 µM.
As for `O=C(O)C(F)(OC(F)(F)C(F)(F)C(F)(F)F)C(F)(F)F` (stereo not drawn) [HPFO-DA, 2,3,3,3-tetrafluoro-2-(heptafluoropropoxy) propanoic acid], in series [1], the “titration profile … with War” value is reported as “comparable to that of hSA in the absence of competitive drug”. Besides, in series [1], the “titration profile to Ibu-saturated hSA” value was “nearly saturated flat curve”. Besides, the “preferably occupied hSA binding sites” value in series [1] was “FA4 and/or FA6 sites”. Further, in series [3], the “number of distinct binding sites occupied in crystal structure” value is listed as “two”. In addition, the “fold lower binding affinity (KD) compared to PFOA high-affinity sites” value in series [2] (298 K) is recorded as roughly 47 fold. In addition, the ΔH2 in series [2] (298 K, sequential binding, second binding event) is 8.08 kcal/mol and 8.08 ± 0.454 kcal/mol; in series [2] (setting [6]), 6.74 ± 0.669 kcal/mol. Besides, the ΔH1 entry in series [2] (setting [5]) is “–23.2 ± 3.4 kJ/mol”. Besides, in series [2] (setting [5]), the “–TΔS1” value is “–6.54 kJ/mol”. Also, the “–TΔS2” value in series [2] (setting [6]) was “–55.4 kJ/mol”. In addition, the Kd in series [2] (KD1, 298 K, sequential binding, first binding event) is 19 ± 1.3 µM; in series [2] (KD1, 310 K, sequential binding, first binding event) it was 9.9 ± 2.3 µM; in series [2] (KD2, 310 K, sequential binding, second binding event), 27 ± 8.1 µM; in series [2] (human, pH 7.4, KD2, 298 K, sequential binding, second binding event) it was greater than 80 µM; in series [2] (read-out: KD2, 298 K, sequential binding, second binding event), 84.2 ± 14.6 µM.
Regarding `CCCCCCCCCCCCCC(=O)O` [Myr, sodium myristate], the “number of distinct binding sites occupied in crystal structure” value in series [3] is given as “four”.
Take `O=C(O)C(F)(F)C(F)(F)C(F)(F)C(F)(F)C(F)(F)F` [PFHxA, Perfluorohexanoic acid]: in series [1], the “titration profile … with War” value is recorded as “comparable to that of hSA in the absence of competitive drug”, the “titration profile to Ibu-saturated hSA” value is “nearly saturated flat curve” and the “preferably occupied hSA binding sites” value is reported as “FA4 and/or FA6 sites”. For the same molecule, in series [2] (298 K, one set of sites), the “n (stoichiometry)” value was 1.02 ± 0.05, the ΔG result was “–30.60 kJ/mol” and the ΔH result is given as “–34.1 ± 7.40 kJ/mol”. Moreover, in series [2] (310 K, one set of sites), the “n (stoichiometry)” value came to 1.03 ± 0.05, the ΔG entry is given as “–31.70 kJ/mol”, the ΔH result is “–39.2 ± 2.00 kJ/mol” and the “–TΔS” value stood at 1.84 kcal/mol. In addition, the Kd in series [2] (KD, 298 K, one set of sites) was determined as 4.5 ± 2.1 µM. The molecule also showed a Kd in series [2] (KD, 310 K, one set of sites) of 5.9 ± 0.7 µM.
As for `O=C(O)C(F)(F)C(F)(F)C(F)(F)C(F)(F)C(F)(F)C(F)(F)C(F)(F)F` [PFOA, perfluorooctanoic acid], the “average half-life for serum elimination” value in series [4] is 1–5 years. Also, the entries for the “n (stoichiometry)” value in series [2] (setting [7]), in series [2] (setting [9]) and in series [2] (setting [10]) were 0.89 ± 0.30, 0.95 ± 0.2 and 9.5 ± 0.20, respectively. Further, the ΔG result was “–36.10 kJ/mol” in series [2] (setting [7]), “–26.60 kJ/mol” in series [2] (setting [8]), “–38.10 kJ/mol” in series [2] (setting [9]) and “–29.10 kJ/mol” in series [2] (setting [10]). The “–TΔS” value in series [2] (setting [7]) is on record as “–17.70 kJ/mol”; in series [2] (setting [8]), “–28.2 kJ/mol”; in series [2] (setting [9]), “–21.6 kJ/mol”; in series [2] (setting [10]), “–31.30 kJ/mol”. In addition, the ΔH entry is listed as “–16.5 ± 1.9 kJ/mol” in series [2] (setting [9]) and “–2.26 ± 0.75 kJ/mol” in series [2] (setting [10]). Moreover, the Kd in series [2] (KD, 298 K, two sets of sites, low-affinity sites) was determined as 29.7 ± 1.7 µM; in series [2] (KD, 310 K, two sets of sites, low-affinity sites) it was 46 ± 2 µM; in series [2] (human, pH 7.4, KD, 298 K, two sets of sites, high-affinity sites) it was 0.4 ± 0.01 µM; in series [2] (human, pH 7.4, KD, 310 K, two sets of sites, high-affinity sites), 39.3 ± 0.4 µM.
Consider `O=S(=O)(O)C(F)(F)C(F)(F)C(F)(F)C(F)(F)C(F)(F)C(F)(F)C(F)(F)C(F)(F)F` [PFOS, perfluorooctanesulfonic acid], for which, in series [4], the “average half-life for serum elimination” value is listed as 1–5 years.

(Values after publication PMC9682524, “Investigation of the Interaction between Human Serum Albumin and Branched Short-Chain Perfluoroalkyl Compounds” (Chemical Research in Toxicology, 2022).)
